Experimental data: patent publication US20100168084A1, “Therapeutic compounds and related methods of use” (priority 2008, published 2010)
Read-outs that look alike come from different tables or passages of the source.

Target: T1, sirtuin protein (Homo sapiens, UniProt Q96EB6)
T1 sequence (Q96EB6 2-747 limits assumed): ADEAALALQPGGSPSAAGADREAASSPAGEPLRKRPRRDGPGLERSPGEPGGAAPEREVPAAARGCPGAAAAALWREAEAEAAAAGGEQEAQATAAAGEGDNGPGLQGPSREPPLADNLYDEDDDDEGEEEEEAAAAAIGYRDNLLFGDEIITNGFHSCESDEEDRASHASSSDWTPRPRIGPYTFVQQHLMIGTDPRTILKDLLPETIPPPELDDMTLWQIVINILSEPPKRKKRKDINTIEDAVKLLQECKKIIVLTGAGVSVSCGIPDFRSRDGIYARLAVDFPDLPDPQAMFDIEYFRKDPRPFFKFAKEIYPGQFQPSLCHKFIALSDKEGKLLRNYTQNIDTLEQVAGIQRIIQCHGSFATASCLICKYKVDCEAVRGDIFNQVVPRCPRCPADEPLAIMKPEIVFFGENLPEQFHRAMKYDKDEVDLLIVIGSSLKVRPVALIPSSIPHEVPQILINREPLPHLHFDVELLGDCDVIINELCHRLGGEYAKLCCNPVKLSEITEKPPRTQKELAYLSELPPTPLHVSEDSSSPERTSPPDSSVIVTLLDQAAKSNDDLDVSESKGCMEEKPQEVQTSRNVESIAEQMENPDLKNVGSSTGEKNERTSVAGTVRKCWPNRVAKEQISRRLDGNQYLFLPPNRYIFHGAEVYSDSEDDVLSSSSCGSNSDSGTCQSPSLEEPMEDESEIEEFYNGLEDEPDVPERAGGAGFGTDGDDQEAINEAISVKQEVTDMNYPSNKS
Assay: MS assay (IC50 MS ASSAY / ED50 MS / FOLD ACTIVATION MS)
Format: biochemical
Parameters: scale not given here

[1] = MS assay, class symbols A′, A, B, D, NA, legend not given
[2] = Table 4, class symbols A′, A, B, D, NA, legend not given
[3] = class symbols (A′, A, B, D, NA), no legend given

COc1ccc(C(=O)Nc2cccc(-c3nc4ccncc4o3)c2)c(OC)c1 [Compound 429]
A′: ED50 MS ASSAY [1] | ED50 MS ASSAY (Table 4) | ED50 MS ASSAY [2]

COc1ccc(C(=O)Nc2ccccc2-c2cn3cccnc3n2)cc1OC [Compound 438]
A′: ED50 MS ASSAY [1] | ED50 MS ASSAY (Table 4) | ED50 MS ASSAY [2]

COc1cc(C(=O)Nc2ccccc2-c2cn3cccnc3n2)cc(OC)c1OC [Compound 439]
A′: ED50 MS ASSAY [1] | ED50 MS ASSAY (Table 4) | ED50 MS ASSAY [2]

O=C(Nc1ccccc1-c1cn2c(CN3CCNCC3)csc2n1)c1cnc2ccccc2n1 [Compound 441]
A′: ED50 MS ASSAY [1] | ED50 MS ASSAY (Table 4) | ED50 MS ASSAY [2]

Cc1c(C(=O)Nc2ccccc2-c2cn3c(CN4CCNCC4)csc3n2)oc2ccccc12 [Compound 442]
A′: ED50 MS ASSAY [1] | ED50 MS ASSAY (Table 4) | ED50 MS ASSAY [2]

COc1ccc(C(=O)Nc2ccccc2-c2nc3ccncc3o2)c(OC)c1 [Compound 455]
A′: ED50 MS ASSAY [1] | ED50 MS ASSAY (Table 4) | ED50 MS ASSAY [2]

COc1cc(OC)cc(C(=O)Nc2ccccc2-c2nc3ccncc3o2)c1 [Compound 456]
A′: ED50 MS ASSAY [1] | ED50 MS ASSAY (Table 4) | ED50 MS ASSAY [2]

CN(C)c1cccc(C(=O)Nc2ccccc2-c2nc3ccncc3o2)c1 [Compound 458]
A′: ED50 MS ASSAY [1] | ED50 MS ASSAY (Table 4) | ED50 MS ASSAY [2]

CN(C)c1ccc(C(=O)Nc2ccccc2-c2nc3ccncc3o2)cc1 [Compound 459]
A′: ED50 MS ASSAY [1] | ED50 MS ASSAY (Table 4) | ED50 MS ASSAY (Table 4, class symbols) | ED50 MS ASSAY [2] | ED50 MS ASSAY [3]

Cc1cc(C)cc(C(=O)Nc2ccccc2-c2nc3ncccc3o2)c1 [Compound 481]
A′: ED50 MS ASSAY (Table 4, class symbols)

Cc1cc(C)cc(C(=O)Nc2ccccc2-c2nc3ncccc3o2)c1 [Compound 482]
A′: ED50 MS ASSAY | ED50 MS ASSAY (Table 4) | ED50 MS ASSAY [2] | ED50 MS ASSAY [3]

COc1cc(C(=O)Nc2ccccc2-c2nc3ccccc3[nH]2)ccc1CN1CCOCC1 [Compound 503]
A′: ED50 MS ASSAY | ED50 MS ASSAY (Table 4) | ED50 MS ASSAY (Table 4, class symbols) | ED50 MS ASSAY [2] | ED50 MS ASSAY [3]

COc1ccc(C(=O)Nc2ccc(C)cc2-c2nc3ccccc3[nH]2)cc1OC [Compound 507]
A′: ED50 MS ASSAY | ED50 MS ASSAY (Table 4) | ED50 MS ASSAY (Table 4, class symbols) | ED50 MS ASSAY [2] | ED50 MS ASSAY [3]

O=C(Nc1ccccc1-c1nc2ccccc2[nH]1)c1cnc2ccccc2n1 [Compound 508]
A′: ED50 MS ASSAY | ED50 MS ASSAY (Table 4) | ED50 MS ASSAY (Table 4, class symbols) | ED50 MS ASSAY [2] | ED50 MS ASSAY [3]

O=C(Nc1ccccc1-c1cn2c(CN3CCNCC3)csc2n1)c1c[nH]c2ccccc12 [Compound 510]
A′: ED50 MS ASSAY | ED50 MS ASSAY (Table 4) | ED50 MS ASSAY (Table 4, class symbols) | ED50 MS ASSAY [2] | ED50 MS ASSAY [3]

O=C(Nc1ccccc1-c1cn2c(CN3CCNCC3)csc2n1)c1c[nH]nc1-c1ccccc1 [Compound 512]
A′: ED50 MS ASSAY | ED50 MS ASSAY (Table 4) | ED50 MS ASSAY (Table 4, class symbols) | ED50 MS ASSAY [2] | ED50 MS ASSAY [3]

O=C(Nc1ccccc1-c1cn2cc(CN3CCNCC3)sc2n1)c1cnc2ccccc2n1 [Compound 513]
A′: ED50 MS ASSAY | ED50 MS ASSAY (Table 4) | ED50 MS ASSAY (Table 4, class symbols) | ED50 MS ASSAY [2] | ED50 MS ASSAY [3]

COc1ccc(C(=O)Nc2ccc(-c3nc4cnccc4s3)s2)c(OC)c1 [Compound 515]
A′: ED50 MS ASSAY | ED50 MS ASSAY (Table 4) | ED50 MS ASSAY (Table 4, class symbols) | ED50 MS ASSAY [2] | ED50 MS ASSAY [3]

CN(C)c1cccc(C(=O)Nc2ccc(-c3nc4cnccc4s3)s2)c1 [Compound 518]
A′: ED50 MS ASSAY | ED50 MS ASSAY (Table 4) | ED50 MS ASSAY (Table 4, class symbols) | ED50 MS ASSAY [2] | ED50 MS ASSAY [3]

CN(C)c1ccc(C(=O)Nc2ccc(-c3nc4cnccc4s3)s2)cc1 [Compound 519]
A′: ED50 MS ASSAY | ED50 MS ASSAY (Table 4) | ED50 MS ASSAY (Table 4, class symbols) | ED50 MS ASSAY [2] | ED50 MS ASSAY [3]

COc1cc(C(=O)Nc2ccc(-c3nc4cnccc4s3)s2)cc(OC)c1OC [Compound 520]
A′: ED50 MS ASSAY | ED50 MS ASSAY (Table 4) | ED50 MS ASSAY (Table 4, class symbols) | ED50 MS ASSAY [2] | ED50 MS ASSAY [3]

COc1cc(OC)cc(C(=O)Nc2ccccc2-c2nc3cccnc3[nH]2)c1 [Compound 521]
A′: ED50 MS ASSAY | ED50 MS ASSAY (Table 4) | ED50 MS ASSAY (Table 4, class symbols) | ED50 MS ASSAY [2] | ED50 MS ASSAY [3]

CN(C)c1cccc(C(=O)Nc2ccccc2-c2nc3cccnc3[nH]2)c1 [Compound 524]
A′: ED50 MS ASSAY | ED50 MS ASSAY (Table 4) | ED50 MS ASSAY (Table 4, class symbols) | ED50 MS ASSAY [2] | ED50 MS ASSAY [3]

COc1ccc(C(=O)Nc2ccccc2-c2nc3cccnc3[nH]2)cc1OC [Compound 525]
A′: ED50 MS ASSAY | ED50 MS ASSAY (Table 4) | ED50 MS ASSAY (Table 4, class symbols) | ED50 MS ASSAY [2] | ED50 MS ASSAY [3]

O=C(Nc1ccccc1-c1nc2cccnc2[nH]1)c1ccc(N2CCOCC2)cc1 [Compound 526]
A′: ED50 MS ASSAY | ED50 MS ASSAY (Table 4) | ED50 MS ASSAY (Table 4, class symbols) | ED50 MS ASSAY [2] | ED50 MS ASSAY [3]

O=C(Nc1ccccc1-c1nc2cccnc2[nH]1)c1ccc(N2CCCCC2)cc1 [Compound 527]
A′: ED50 MS ASSAY | ED50 MS ASSAY (Table 4) | ED50 MS ASSAY (Table 4, class symbols) | ED50 MS ASSAY [2] | ED50 MS ASSAY [3]

COc1ccc(C(=O)Nc2ccccc2-c2nc3cccnc3[nH]2)cc1C(F)(F)F [Compound 528]
A′: ED50 MS ASSAY | ED50 MS ASSAY (Table 4) | ED50 MS ASSAY (Table 4, class symbols) | ED50 MS ASSAY [2] | ED50 MS ASSAY [3]

O=C(Nc1ccccc1-c1nc2cccnc2[nH]1)c1cccc(OC(F)(F)F)c1 [Compound 529]
A′: ED50 MS ASSAY | ED50 MS ASSAY (Table 4) | ED50 MS ASSAY (Table 4, class symbols) | ED50 MS ASSAY [2] | ED50 MS ASSAY [3]

COc1cccc(C(=O)Nc2ccccc2-c2nc3cccnc3[nH]2)c1C [Compound 530]
A′: ED50 MS ASSAY | ED50 MS ASSAY (Table 4) | ED50 MS ASSAY (Table 4, class symbols) | ED50 MS ASSAY [2] | ED50 MS ASSAY [3]

COc1ccc(C(=O)Nc2ccccc2-c2nc3cccnc3[nH]2)cc1 [Compound 531]
A′: ED50 MS ASSAY | ED50 MS ASSAY (Table 4) | ED50 MS ASSAY (Table 4, class symbols) | ED50 MS ASSAY [2] | ED50 MS ASSAY [3]

COc1cccc(C(=O)Nc2ccccc2-c2nc3cccnc3[nH]2)c1 [Compound 532]
A′: ED50 MS ASSAY | ED50 MS ASSAY (Table 4) | ED50 MS ASSAY (Table 4, class symbols) | ED50 MS ASSAY [2] | ED50 MS ASSAY [3]

O=C(Nc1ccccc1-c1nc2cccnc2[nH]1)c1ccccc1 [Compound 533]
A′: ED50 MS ASSAY | ED50 MS ASSAY (Table 4) | ED50 MS ASSAY (Table 4, class symbols) | ED50 MS ASSAY [2] | ED50 MS ASSAY [3]

CN(C)c1ccc(C(=O)Nc2ccccc2-c2nc3cccnc3[nH]2)cc1 [Compound 534]
A′: ED50 MS ASSAY | ED50 MS ASSAY (Table 4) | ED50 MS ASSAY (Table 4, class symbols) | ED50 MS ASSAY [2] | ED50 MS ASSAY [3]

COc1cc(C(=O)Nc2ccccc2-c2nc3cccnc3[nH]2)ccc1CN1CCOCC1 [Compound 537]
A′: ED50 MS ASSAY | ED50 MS ASSAY (Table 4) | ED50 MS ASSAY (Table 4, class symbols) | ED50 MS ASSAY [2] | ED50 MS ASSAY [3]

COc1cc(C(=O)Nc2ccccc2-c2nc3cccnc3[nH]2)ccc1CN1CCN(C)CC1 [Compound 539]
A′: ED50 MS ASSAY | ED50 MS ASSAY (Table 4) | ED50 MS ASSAY (Table 4, class symbols) | ED50 MS ASSAY [2] | ED50 MS ASSAY [3]

O=C(Nc1ccccc1-c1cn2c(CN3CCNCC3)csc2n1)c1cnccn1 [Compound 543]
A′: ED50 MS ASSAY | ED50 MS ASSAY (Table 4) | ED50 MS ASSAY (Table 4, class symbols) | ED50 MS ASSAY [2] | ED50 MS ASSAY [3]

O=C(Nc1ccccc1-c1cn2c(n1)CCCC2)c1ccc2ccccc2n1 [Compound 547]
A′: ED50 MS ASSAY | ED50 MS ASSAY (Table 4) | ED50 MS ASSAY (Table 4, class symbols) | ED50 MS ASSAY [2] | ED50 MS ASSAY [3]

O=C(Nc1ccccc1-c1cn2c(n1)CCCC2)c1cnc2ccccc2n1 [Compound 548]
A′: ED50 MS ASSAY | ED50 MS ASSAY (Table 4) | ED50 MS ASSAY (Table 4, class symbols) | ED50 MS ASSAY [2] | ED50 MS ASSAY [3]

O=C(Nc1ccccc1-c1nc2ccccc2[nH]1)c1ccc2ccccc2n1 [Compound 556]
A′: ED50 MS ASSAY | ED50 MS ASSAY (Table 4) | ED50 MS ASSAY (Table 4, class symbols) | ED50 MS ASSAY [2] | ED50 MS ASSAY [3]
